Reference: patent US11472846B2, “Compositions and methods for treating diseases by inhibiting exosome release” (priority 2016, dated 2022)

Experiments:
[1] = tested on: MDA-MB-231 breast cancer cells; experiment: InnoCyte cell migration assay, MDA-MB-231; assay type: cell-based, human; details: MDA-MB-231 cells, 280 nM SMR peptide or 3 μM Latrunculin A, 24 hours
Experimental: (§1) 7-12. Cell migration assay. Cell migration assays were performed using the InnoCyte Cell Migration Assay (EMD Millipore Corporation, Temecula, Calif.) according to the manufacturer's instructions. Briefly, cell migration was monitored in the presence and absence of SMRwt peptides or latrunculin A (positive control inhibitor), which were added to the lower chamber of a 96-well plate. MCF-7 and MDA-MB-231 breast cancer cells and non-tumorigenic MCF-10A breast cells were harvested by 0.25% Trypsin-EDTA (Life Technologies) release and resuspended at 250,000500,000 cells/ml in serum-free RPMI 1640 media. A total of 25,000-50,000 cells was added to the upper chamber and allowed to migrate through an 8-μm pore-size membrane for 24 hours at 37° C. in a 5% CO2 atmosphere. Cells that migrated through the membrane were detached and labeled with Calcein-AM fluorescent dye. Fluorescence was measured using a Fluorescence Plate Reader (Molecular Devices, Sunnyvale, Calif.) with an excitation wavelength of 485 nm and an emission wavelength of 515 nm. The experiment was repeated in triplicate, and each conditioned experiment was performed in quadruplicate.

[2] = tested on: MCF-7 breast cancer cells; experiment: InnoCyte cell migration assay, MCF-7; assay type: cell-based, human; details: MCF-7 cells, 1120 nM SMR peptide or 3 μM Latrunculin A, 24 hours
Experimental: as §1

In the case of C/C1=C/C(=O)O[C@@H]2C[C@@H](CC[C@H](C)/C=C\C=C\CC1)O[C@@](O)([C@@H]1CSC(=O)N1)C2 [latrunculin A, reference compound], the “reduced migration by” value [1] is reported as 50.39% and the “reduced migration by” value [2] is reported as 53.05%.
